The record followed here is BindingDB's records for doi:10.1074/jbc.M110.164293 (Manchester Interdisciplinary Biocentre, 2010).

What all share (experiment): Binding Assay
In assay [1] the target is T1, Cytochrome P450 144 (Mycobacterium tuberculosis (strain CDC 1551 / Oshkosh), UniProt P9WPL0).
T1 sequence (P9WPL0 whole entry): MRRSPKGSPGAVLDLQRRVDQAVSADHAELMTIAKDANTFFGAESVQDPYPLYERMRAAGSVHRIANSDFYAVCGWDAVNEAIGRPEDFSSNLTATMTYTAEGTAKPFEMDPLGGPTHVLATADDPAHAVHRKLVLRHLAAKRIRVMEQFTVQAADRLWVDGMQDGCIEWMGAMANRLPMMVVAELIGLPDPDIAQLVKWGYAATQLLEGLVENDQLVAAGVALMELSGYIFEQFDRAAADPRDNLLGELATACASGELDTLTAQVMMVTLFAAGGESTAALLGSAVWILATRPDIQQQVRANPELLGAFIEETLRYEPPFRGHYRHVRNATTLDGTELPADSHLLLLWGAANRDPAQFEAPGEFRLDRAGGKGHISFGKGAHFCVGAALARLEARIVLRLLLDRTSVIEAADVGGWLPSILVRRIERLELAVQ
From the text:
(§1) Substrate and ligand binding assay using UV- visible absorbance analysis of CYP142 was done on a Cary UV-50 UV-visible scanning spectrophotometer (Varian, UK) using a 1-cm path length quartz cuvette, recording spectra between 250 and 800 nm.

For assay [2], the target named is T2, Steroid C26-monooxygenase (Mycobacterium tuberculosis (strain CDC 1551 / Oshkosh), UniProt P9WPL4).
T2 sequence (P9WPL4 whole entry): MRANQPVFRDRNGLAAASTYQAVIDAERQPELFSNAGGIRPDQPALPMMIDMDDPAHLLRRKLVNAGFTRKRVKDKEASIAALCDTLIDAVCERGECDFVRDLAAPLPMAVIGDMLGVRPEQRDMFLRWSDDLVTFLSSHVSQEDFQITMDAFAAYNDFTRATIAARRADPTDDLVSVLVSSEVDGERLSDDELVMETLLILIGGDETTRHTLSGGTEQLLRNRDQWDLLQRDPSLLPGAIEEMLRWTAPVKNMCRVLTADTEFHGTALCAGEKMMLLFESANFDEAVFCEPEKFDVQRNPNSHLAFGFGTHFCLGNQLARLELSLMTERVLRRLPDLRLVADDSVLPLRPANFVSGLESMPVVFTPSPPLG
Description: as §1

Assay [3] concerns the target T3, Steroid C26-monooxygenase (Mycobacterium tuberculosis (strain CDC 1551 / Oshkosh), UniProt P9WPP0).
T3 sequence (P9WPP0 whole entry): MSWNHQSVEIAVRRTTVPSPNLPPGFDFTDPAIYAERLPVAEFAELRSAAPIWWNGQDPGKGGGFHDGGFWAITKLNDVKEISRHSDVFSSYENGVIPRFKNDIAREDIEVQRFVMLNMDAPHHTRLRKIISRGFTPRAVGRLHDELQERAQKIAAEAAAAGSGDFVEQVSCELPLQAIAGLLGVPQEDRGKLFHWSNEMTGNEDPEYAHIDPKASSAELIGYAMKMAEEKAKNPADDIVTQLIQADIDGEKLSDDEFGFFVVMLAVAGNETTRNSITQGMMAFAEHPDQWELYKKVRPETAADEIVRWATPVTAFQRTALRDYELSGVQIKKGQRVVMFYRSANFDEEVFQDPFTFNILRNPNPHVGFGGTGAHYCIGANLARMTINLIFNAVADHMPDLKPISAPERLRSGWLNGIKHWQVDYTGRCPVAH
Description: as §1

On to `c1ccc(-c2c[nH]cn2)cc1`, for which the Kd was 280 µM in assay [1], 12 µM in assay [2] and 216 µM in assay [3].

As to `Clc1ccccc1C(c1ccccc1)(c1ccccc1)n1ccnc1`, the Kd in assay [1] is 0.37 µM; in assay [2], 3.8 µM; in assay [3] it was 5.3 µM.

Take `CC(C)CCC[C@@H](C)[C@H]1CC[C@H]2[C@@H]3CCC4=CC(=O)CC[C@]4(C)[C@H]3CC[C@]12C` [4-Cholesten-3-one]: the Kd in assay [2] amounted to 0.36 µM; in assay [3], 1.2 µM.

For the compound `CC(=O)N1CCN(c2ccc(OC[C@H]3CO[C@](Cn4ccnc4)(c4ccc(Cl)cc4Cl)O3)cc2)CC1` [24F2-1,25(OH)D3], the Kd in assay [1] was determined as 134 µM; in assay [2], 21 µM; in assay [3], 27.1 µM.

In the case of `CC(C)CCC[C@@H](C)[C@H]1CC[C@H]2[C@@H]3CC=C4C[C@@H](O)CC[C@]4(C)[C@H]3CC[C@]12C` [(1S,2R,5S,10S,11S,14R,15R)-2,15-dimethyl-14-[(2R)-6-methylheptan-2-yl]tetracyclo[8.7.0.0^{2,7}.0^{11,15}]heptadec-7-en-5-ol], the Kd worked out at 0.34 µM in assay [2] and 0.11 µM in assay [3].

On to `Clc1ccc(CO[C@@H](Cn2ccnc2)c2ccc(Cl)cc2Cl)c(Cl)c1` [Brentan], for which the Kd in assay [1] is 0.98 µM; in assay [2], 4 µM; in assay [3], 4.6 µM.

As for `Clc1ccc(COC(Cn2ccnc2)c2ccc(Cl)cc2Cl)cc1` (configuration not stated) [ECONAZOLE], the values for the Kd in assay [1], in assay [2] and in assay [3] were 0.78 µM, 4.6 µM and 11.7 µM, respectively.

Consider `OC(Cn1cncn1)(Cn1cncn1)c1ccc(F)cc1F` [Fungata], for which the values for the Kd in assay [2] and in assay [3] were 860 µM and 43.1 µM, respectively.

Regarding `CCC(C)n1ncn(-c2ccc(N3CCN(c4ccc(OC[C@H]5CO[C@](Cn6cncn6)(c6ccc(Cl)cc6Cl)O5)cc4)CC3)cc2)c1=O` (some centres not stated) [Oriconazole], the Kd in assay [3] was determined as 30.2 µM.
